Laboratory results: patent US20230338316A1, “ABBAPOLINS AS INHIBITORS AND DEGRADERS OF POLO-LIKE KINASES” (UNIVERSITY OF SOUTH CAROLINA, priority 2022, published 2023)

Experiments:
PLK1 PBD (367-603) = biological target: T1, PLK1 PBD (367-603) (Homo sapiens, UniProt P53350); test: Fluorescence polarization assay, PLK1 PBD; assay type: binding; conditions: for IC50: fluorescence polarization, read-out: PLK1 PBD IC50
T1 construct: PLK1 PBD (367-603) and PLK3 PBD (335-646) proteins were obtained from BPS Biosciences Inc; purchased BPS Biosciences Inc. (San Diego, CA)
Procedure: (§1) Materials were dissolved in DMSO (10 mM) and diluted from 10 nM to 600 μM (maximum of 6% DMSO tolerance in the assay). PLK1 PBD (367-603) and PLK3 PBD (335-646) proteins were obtained from BPS Biosciences Inc. (San Diego, CA); 17 ng PLK1 and 156 ng PLK3 were used per reaction. The fluorescein-tracer phospho-peptides (MAGPMQS[pT]PLNGAKK (SEQ ID NO: 1) for PLK1, and GPLATS[pT]PKNG (SEQ ID NO: 2) for PLK3) were used at a final concentration of 10 nM. Incubation was carried out at room temperature for 45 minutes. Fluorescence was measured using a DTX 880 plate reader and Multimode Analysis software (Beckman Coulter, Brea, CA). The polarization values in millipolarization (mP) units were measured at an excitation wavelength of 488 nm and an emission wavelength of 535 nm. Each data point was performed in triplicate for every experiment, and experiments were performed at least three times. An IC50 value for each compound was calculated from linear regression analysis of the plots.

PLK3 PBD (335-646) = biological target: T2, PLK3 PBD (335-646) (Homo sapiens, UniProt Q9H4B4); test: Fluorescence polarization assay, PLK3 PBD; assay type: binding
T2 construct: PLK1 PBD (367-603) and PLK3 PBD (335-646) proteins were obtained from BPS Biosciences Inc; purchased BPS Biosciences Inc. (San Diego, CA)
T2 sequence (Q9H4B4 335-646): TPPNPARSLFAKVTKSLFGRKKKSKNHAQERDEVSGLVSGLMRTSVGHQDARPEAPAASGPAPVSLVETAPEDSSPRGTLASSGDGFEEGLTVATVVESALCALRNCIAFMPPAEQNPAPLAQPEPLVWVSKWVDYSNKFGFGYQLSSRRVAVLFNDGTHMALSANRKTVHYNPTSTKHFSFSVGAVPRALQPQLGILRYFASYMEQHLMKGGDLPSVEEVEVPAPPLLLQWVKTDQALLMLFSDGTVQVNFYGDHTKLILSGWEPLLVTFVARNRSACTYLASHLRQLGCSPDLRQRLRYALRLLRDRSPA
Procedure: as §1

[1] = test system: PC3 prostate cancer cells; test: MTT cell viability assay, PC3; assay type: cell-based; conditions: for IC50: MTT
Procedure: PC3 prostate cancer cells were maintained in DMEM (Invitrogen™, Carlsebad, CA) supplemented with 10% FBS or Corning® Nu-serum™(BD™ Biosciences, Franklin Lakes, NJ) and 1% penicillin/streptomycin (Invitrogen™) in a humidified incubator and 5% CO2 at 37° C.
Exponentially growing cells were plated in 96-well dishes. Dose response curves were used to treat cells for 72 hours with inhibitors. Following the three-day treatment, cell viability was measured using the MTT (3-(4,5-dimethylthiazol-2-yl)-2,5-diphenyltetrazolium bromide) colorimetric assay. Cells were incubated for 3 hours with MTT allowing viable cells to metabolize the tetrazolium dye to a purple colored solution. Absorbance measurements (595 nm) were quantified using a DTX 880 plate reader and IC50 values were generated for FLIPs.

HOP-92 = test: Single dose cell viability assay, HOP-92; assay type: cell-based; conditions: HOP-92 (NSCLC)
Procedure: (§2) Lead abbapolin compounds were tested in multiple cancer cell lines, including non-small cell lung cancer (NSCLC) cells, melanoma cells, colon cancer cells, central nervous system (CNS) cancer cells, prostate cancer cells, renal cancer cells, and breast cancer cells. Each of these cancer cells lines were sensitive to the lead abbapolin compounds in a cell viability assay, including 6184 (Table 3), 6277 (Table 4), 6279 (Table 5), 6355 (Table 6), 6359 (Table 7), 6369 (Table 8), and 6421 (Table 9).

PLK1 [2] = biological target: T3, PLK1 (Homo sapiens, UniProt P53350); test: PLK1 degradation in HeLa cells; assay type: cell-based; parameters: endogenous in cells; conditions: HeLa cell line, 24, 48 and 72 hours
Procedure: (§3) For example, PC3 cells were treated with varying dosages of abbapolin 6369, and percent of PLK1 degradation was measured at 24 hours (FIGS. 8A-8B). HeLa cells were treated with 25 μM abbapolin 6369, and time points shown in the assay were 24 hours, 48 hours, and 72 hours (FIGS. 9A-9B). PC3 cells were treated with varying dosages of abbapolin 6329, and percent of PLK1 degradation was measured at 24 hours (FIGS. […]). HeLa cells were treated with varying dosages of abbapolin 6329, and time points shown in the assay were 24 hours, 48 hours, and 72 hours (FIGS. 11A-11B).

PLK1 [3] = biological target: T3, PLK1; test: PLK1 degradation in PC3 cells; assay type: cell-based; parameters: endogenous in cells; host or cells: PC3 prostate cancer cells; conditions: PC3 cell line, 24 hours
Procedure: as §3

HCT-15 = test: Single dose cell viability assay, HCT-15; assay type: cell-based; conditions: HCT-15 (Colon), single dose 25 μM
Procedure: as §2

RPMI-8226 = test: Single dose cell viability assay, RPMI-8226; assay type: cell-based; conditions: RPMI-8226 (Leukemia), single dose 25 μM
Procedure: as §2

CCRF-CEM = test: Single dose cell viability assay, CCRF-CEM; assay type: cell-based; conditions: CCRF-CEM (Leukemia), single dose 25 μM
Procedure: as §2

U251 = test: Single dose cell viability assay, U251; assay type: cell-based; conditions: U251 (CNS), single dose 25 μM
Procedure: as §2

SF-295 = test: Single dose cell viability assay, SF-295; assay type: cell-based; conditions: SF-295 (CNS), single dose 25 μM
Procedure: as §2

NCI-H522 = test: Single dose cell viability assay, NCI-H522; assay type: cell-based; conditions: NCI-H522 (NSCLC), single dose 25 μM
Procedure: as §2

SK-MEL-2 = test: Single dose cell viability assay, SK-MEL-2; assay type: cell-based; conditions: SK-MEL-2 (Melanoma), single dose 25 μM
Procedure: as §2

MDA-MB-468 = test: Single dose cell viability assay, MDA-MB-468; assay type: cell-based; conditions: MDA-MB-468 (Breast), single dose 25 μM
Procedure: as §2

SK-MEL-5 = test: Single dose cell viability assay, SK-MEL-5; assay type: cell-based; conditions: SK-MEL-5 (Melanoma), single dose 25 μM
Procedure: as §2

UACC-62 = test: Single dose cell viability assay, UACC-62; assay type: cell-based; conditions: UACC-62 (Melanoma), single dose 25 μM
Procedure: as §2

PLK1 [4] = biological target: T3, PLK1; test: Cellular thermal shift assay (CETSA); assay type: cell-based; parameters: endogenous in cells; host or cells: PC3 prostate cancer cells; conditions: intracellular PLK1
Procedure: Cellular thermal shift assay (CETSA) was performed with PC3 cells cultured in RPMI medium supplemented with 10% FBS. For an initial determination of the melting profile of PLK1 AND PLK3, cells dispensed into 96-well PCR plates in the above medium (6000 cells/well in 50 μL) were subjected to temperature gradient (38-60° C.) for 10 min. […] Centrifugation was performed at 14000 rpm to sediment the denatured protein content. Supernatant was collected and subjected to SDS-PAGE, and immunodetection was performed using anti-PLK1 and anti-PLK3 antibodies. PLK1 and PLK3 bands were quantified on a LI-COR C-Digit Blot Scanner, and Tagg and Tagg values were calculated for both proteins. In subsequent experiments, cells were treated at increasing doses (3.0, 1.0, 0.3, 0.1, 0.03 μM) of inhibitors together with DMSO control, for 2 h. Cells were then subjected to heat shock at Tagg for 10 min, and unstable protein was removed by centrifugation step. Following immuno-blotting, bands of stable PLK1 and PLK3 were quantified, normalized to loading control and plotted using GraphPad Prism software. EC50 values for inhibitors were calculated. […] The EC50 of the peptides were determined from the curve fit of the dose response.

T1 sequence (P53350 367-603): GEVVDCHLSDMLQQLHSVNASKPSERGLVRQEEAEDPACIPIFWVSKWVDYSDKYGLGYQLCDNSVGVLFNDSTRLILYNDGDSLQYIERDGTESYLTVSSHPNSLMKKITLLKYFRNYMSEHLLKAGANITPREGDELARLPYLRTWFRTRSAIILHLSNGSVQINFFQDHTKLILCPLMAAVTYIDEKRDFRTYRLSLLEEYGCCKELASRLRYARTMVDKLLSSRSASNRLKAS
T3 sequence (P53350 whole entry): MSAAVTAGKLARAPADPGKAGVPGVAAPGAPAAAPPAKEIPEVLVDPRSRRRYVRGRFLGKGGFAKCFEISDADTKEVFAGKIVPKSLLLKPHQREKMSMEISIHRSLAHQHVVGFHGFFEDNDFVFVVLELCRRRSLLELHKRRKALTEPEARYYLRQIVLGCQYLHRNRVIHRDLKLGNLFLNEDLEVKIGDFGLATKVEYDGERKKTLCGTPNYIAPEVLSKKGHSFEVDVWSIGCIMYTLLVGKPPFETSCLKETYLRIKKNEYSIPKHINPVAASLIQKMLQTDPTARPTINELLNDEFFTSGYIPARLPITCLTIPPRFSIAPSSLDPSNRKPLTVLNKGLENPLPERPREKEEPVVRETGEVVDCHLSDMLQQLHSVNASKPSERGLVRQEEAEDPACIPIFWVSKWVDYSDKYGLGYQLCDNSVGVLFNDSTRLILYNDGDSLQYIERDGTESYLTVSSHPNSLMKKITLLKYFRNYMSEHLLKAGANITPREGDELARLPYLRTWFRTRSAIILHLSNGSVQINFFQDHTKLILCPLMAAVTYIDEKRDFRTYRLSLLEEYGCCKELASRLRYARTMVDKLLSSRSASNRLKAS

Cc1ccc(NC(=O)c2ccc(N)cc2)c(C(=O)O)c1 [compound 6153]
IC50 (PLK1 PBD (367-603)): > 600 µM | IC50 (PLK3 PBD (335-646)): > 600 µM | IC50 ([1]; 72 h): > 120 µM

Cc1ccc(C(=O)O)c(NC(=O)c2ccc(N)cc2)c1 [compound 6154]
IC50 (PLK1 PBD (367-603)): > 600 µM | IC50 ([1]; 72 h): > 120 µM

CCCCCCCCc1ccc(C(=O)Nc2ccc(C(F)(F)F)cc2C(=O)O)cc1 [compound 6165]
IC50 (PLK1 PBD (367-603)): 23.5 ± 4.9 µM | IC50 (PLK3 PBD (335-646)): 37.6 ± 5.7 µM | IC50 ([1]; 72 h): 14.2 ± 2 µM

CCCCCCCCN(C)c1ccc(C(=O)Nc2cc(C)ccc2C(=O)O)cc1 [compound 6171]
IC50 (PLK1 PBD (367-603)): > 600 µM | IC50 ([1]; 72 h): 27.3 µM

CCCCCCCCN(C)c1ccc(C(=O)Nc2ccc(C)cc2C(=O)O)cc1 [compound 6172]
IC50 (PLK1 PBD (367-603)): > 600 µM | IC50 ([1]; 72 h): 28 µM

CCCCCCCCc1ccc(C(=O)Nc2ccccc2CP(=O)(O)O)cc1 [compound 6184]
IC50 (PLK1 PBD (367-603)): 95.3 µM | IC50 ([1]; 72 h): 9.2 µM | Cells Remaining (%) (HOP-92; single dose 10 μM): 43.86%

CCCCCCNC(=O)c1ccc(C(=O)Nc2ccc(C)cc2C(=O)O)cc1 [compound 6189]
PLK1 PBD % inhi. (PLK1 PBD (367-603); at 400 μM): 37% inhi. at

CCCCCCCCc1ccc(C(=O)Nc2cccc(CP(=O)(O)O)c2)cc1 [compound 6195]
IC50 (PLK1 PBD (367-603)): 51.5 µM | IC50 ([1]; 72 h): 20.4 ± 4.4 µM

CCCCCCCCc1ccc(C(=O)Nc2ccc(C)cc2C(=O)O)cc1OC [compound 6280]
IC50 (PLK1 PBD (367-603)): > 100 µM | IC50 (PLK3 PBD (335-646)): > 200 µM | IC50 ([1]; 72 h): 25.9 µM | IC50 ([1]; 72 hours): 18.3 µM

CCCCCCCCc1cccc(C(=O)Nc2ccc(C)cc2C(=O)O)c1 [compound 6281]
IC50 (PLK1 PBD (367-603)): 19.5 µM

CCCCCCCCc1ccc(C(=O)Nc2ccc(C)cc2C(=O)O)cc1C [compound 6282]
IC50 (PLK1 PBD (367-603)): 21 µM

CCCCCCCCc1ccc(C(=O)Nc2ccccc2P(=O)(O)O)cc1 [compound 6286]
IC50 (PLK1 PBD (367-603)): 53 µM | IC50 ([1]; 72 h): 26.6 µM | IC50 ([1]; 72 hours): 25.1 µM

CCCCCCCCc1ccc(C(=O)Nc2cccc(P(=O)(O)O)c2)cc1 [compound 6287]
IC50 (PLK1 PBD (367-603)): 80.8 µM | PC3 % inhi. ([1]; at 100 μM): 50% inhi. at

Cc1ccc(NC(=O)c2ccc(OCCCCCCCCCCCNC(=O)CCCC(=O)Nc3cccc4c3C(=O)N(C3CCC(=O)NC3=O)C4=O)cc2)c(C(=O)O)c1 (stereo not shown) [compound 6329]
PLK1 degradation (PLK1 [2]): degradation of PLK1 | PLK1 degradation (PLK1 [3]): degradation of PLK1

CCCCCCCOc1cccc(S(=O)(=O)Nc2ccc(C)cc2C(=O)O)c1 [compound 6355]
Cells Remaining (%) (HOP-92; single dose 25 μM): 57.02% | Cells Remaining (%) (HCT-15): 49.94% | Cells Remaining (%) (RPMI-8226): 51.41% | Cells Remaining (%) (CCRF-CEM): 67.09% | Cells Remaining (%) (U251): 64.99% | Cells Remaining (%) (SF-295): 59.2% | Cells Remaining (%) (NCI-H522): 65.09% | Cells Remaining (%) (SK-MEL-2): 30.01% | Cells Remaining (%) (MDA-MB-468): 55.12% | Cells Remaining (%) (SK-MEL-5): 59.55% | Cells Remaining (%) (UACC-62): 61.59%

CC[C@@H]1C(=O)N(C)c2cnc(Nc3ccc(C(=O)N[C@H]4CC[C@H](N5CCN(CC6CC6)CC5)CC4)cc3OC)nc2N1C(C)C [volasertib, reference compound]
PLK1 thermal stability by CETSA (PLK1 [4]): decreased the stability of PLK1
